Laboratory results as given in patent US8835397B2, “Macrocyclic lactone tablet formulation” (Bayer New Zealand Ltd., priority 2006, dated 2014).

Test: Abamectin blood plasma levels after raw active (no excipients) in gelatine capsule, sheep (Example 2)
Format: in vivo
Conditions: oral gelatine capsule, raw active without excipients, 0.2 mg/kg
Method: Given the results in Example 1, a further trial was completed to determine the influence of the formulation on the degree of absorption of abamectin. This was completed by ascertaining baseline levels of abamectin drug bioavailability when animals are dosed with raw active (no excipients).
Five sheep weighing 59.0 kg to 63.5 kg (mean=61.2 kg) were all dosed with one abamectin treatment, which contained a dose sufficient for a 60 kg animal at the standard dose rate of 0.2 mg/kg for abamectin. The abamectin dose was contained within a gelatine capsule.
Prior to administration of the invention or Reference formulation, all animals were dosed to their individual liveweight with SCANDA™ (Batch 52888, expiry April 2006) at least 14 days prior to each treatment session, and tested free of strongylid nematodes (via faecal egg count) prior to the commencement of each treatment session.
Gelatine capsules containing an abamectin drug (one capsule per sheep) were used. All animals were dosed orally with the assistance of a “pill popper”, which was followed immediately by approx 60 ml of tap water. The capsules were dark green in colour, to prevent the light sensitive abamectin from being prematurely exposed to light.
All animals were blood sampled seven times. […]

For abamectin, which “Abamectin blood plasma peak level” value is on record?
The value was “just above the detection threshold”.
